The record followed here is patent US10301280B2 (Plexxikon Inc., priority 2012, dated 2019).

SMILES strings stand for the structures.

The target in the assay is c-kit kinase (Homo sapiens (Human), UniProt P10721). In words: c-Kit biochemical assay (AlphaScreen). As to conditions: c-kit biochemical inhibitory activity. As to the method: Assays for biochemical cell-based activity of c-kit kinase are known in the art, for example, as described in U.S. Pat. Nos. 7,498,342 and 7,846,941, the disclosures of which are hereby incorporated by reference as it relates to such assays. The c-kit (or kinase domain thereof) is an active kinase in AlphaScreen. IC50 values are determined with respect to inhibition of c-Kit kinase activity, where inhibition of phosphorylation of a peptide substrate is measured as a function of compound concentration. Compounds to be tested were dissolved in DMSO to a concentration of 20 mM. These were diluted 30 μl into 120 μl of DMSO (4 mM) and 1 μl was added to an assay plate. These were then serially diluted 1:3 (50 μl to 100 μl DMSO) for a total of 8 points. Plates were prepared such that each kinase reaction is 20 μl in 1× kinase buffer (50 mM HEPES, pH 7.2, 5 mM MgCl2, 5 mM MnCl2, 0.01% NP-40, 0.2% BSA), 5% DMSO and 10 µM ATP. Substrate was 100 nM biotin-(E4Y)3 (Open Source Biotech, Inc.). C-kit kinase was at 0.1 ng per sample. After incubation of the kinase reaction for 1 hour at room temperature, 5 μl of donor beads (Streptavidin coated beads (Perkin Elmer Life Science) final concentration 1 μg/ml) in stop buffer (50 mM EDTA in 1× kinase buffer) was added, the sample was mixed and incubated for 20 minutes at room temperature before adding 5 μl of acceptor beads (PY20 coated beads (Perkin Elmer Life Science) final concentration 1 μg/ml) in stop buffer. The samples were incubated for 60 minutes at room temperature and the signal per well was read on AlphaQuest reader. Phosphorylated substrate results in binding of the PY20 antibody and association of the donor and acceptor beads such that signal correlates with kinase activity. The signal vs. compound concentration was used to determine the IC50.
Chain of c-kit kinase (P10721 26-976): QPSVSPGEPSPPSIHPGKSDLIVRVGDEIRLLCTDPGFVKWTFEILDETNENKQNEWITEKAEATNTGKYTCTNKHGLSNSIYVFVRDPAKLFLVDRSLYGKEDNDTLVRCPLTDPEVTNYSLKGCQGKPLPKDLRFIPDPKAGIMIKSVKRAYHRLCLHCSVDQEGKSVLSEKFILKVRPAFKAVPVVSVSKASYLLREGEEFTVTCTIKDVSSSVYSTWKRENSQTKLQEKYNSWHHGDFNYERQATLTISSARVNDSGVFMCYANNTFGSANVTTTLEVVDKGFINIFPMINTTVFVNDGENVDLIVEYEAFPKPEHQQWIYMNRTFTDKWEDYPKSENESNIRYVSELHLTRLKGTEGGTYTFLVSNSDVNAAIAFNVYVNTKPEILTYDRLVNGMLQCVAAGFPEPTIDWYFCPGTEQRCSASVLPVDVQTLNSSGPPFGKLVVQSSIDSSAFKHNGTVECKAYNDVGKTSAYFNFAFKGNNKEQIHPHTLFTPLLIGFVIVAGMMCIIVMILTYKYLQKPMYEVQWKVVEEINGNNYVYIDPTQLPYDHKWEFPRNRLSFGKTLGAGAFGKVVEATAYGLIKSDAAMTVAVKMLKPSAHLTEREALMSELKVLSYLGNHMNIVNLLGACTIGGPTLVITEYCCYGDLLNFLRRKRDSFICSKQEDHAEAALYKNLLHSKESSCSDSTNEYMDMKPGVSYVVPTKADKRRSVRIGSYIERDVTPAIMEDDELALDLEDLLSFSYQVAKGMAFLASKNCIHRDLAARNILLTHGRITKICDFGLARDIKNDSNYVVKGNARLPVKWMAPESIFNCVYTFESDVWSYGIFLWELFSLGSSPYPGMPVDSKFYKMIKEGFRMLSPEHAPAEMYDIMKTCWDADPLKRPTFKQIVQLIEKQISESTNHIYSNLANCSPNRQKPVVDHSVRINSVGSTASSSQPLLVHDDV
Compounds were also tested using a similar assay with a 10-fold higher ATP concentration. For these samples, compounds to be tested were dissolved in DMSO to a concentration of 20 mM. These were diluted 30 μl into 120 μl of DMSO (4 mM) and 1 μl was added to an assay plate. These were then serially diluted 1:3 (50 μl to 100 μl DMSO) for a total of 8 points. Plates were prepared such that each kinase reaction is 20 μl in 1× kinase buffer (25 mM HEPES, pH 7.5, 2 mM MgCl2, 2 mM MnCl2, 0.01% Tween-20, 1 mM DTT, and 0.001% BSA), 5% DMSO and 100 µM ATP. Substrate was 30 nM biotin-(E4Y)10 (Upstate Biotech, Cat#12-440). C-kit kinase was at 1 ng per sample. After incubation of the kinase reaction for 1 hour at room temperature, 5 μl of donor beads (Streptavidin coated beads (Perkin Elmer Life Science) final concentration 10 μg/ml) in stop buffer (25 mM HEPES pH 7.5, 100 mM EDTA, 0.3% BSA) was added, the sample was mixed and incubated for 20 minutes at room temperature before adding 5 μl of acceptor beads (PY20 coated beads (Perkin Elmer Life Science) final concentration 10 μg/ml) in stop buffer. The samples were incubated for 60 minutes at room temperature and the signal per well was read on AlphaQuest or Envision reader (Perkin Elmer Life Science). Phosphorylated substrate results in binding of the PY20 antibody and association of the donor and acceptor beads such that signal correlates with kinase activity. The signal vs. compound concentration was used to determine the IC50.
The c-kit enzyme used in the above assay was either obtained from Cell Signaling Technology (Cat. #7754) or was prepared as follows: A plasmid encoding kit (DNA and encoded protein sequences shown below) was engineered using common polymerase chain reaction (PCR) methods. Complementary DNA cloned from various human tissues were purchased from Invitrogen, and these were used as substrates in the PCR reactions. Specific custom synthetic oligonucleotide primers were designed to initiate the PCR product, and also to provide the appropriate restriction enzyme cleavage sites for ligation with the plasmids. […]
A general note: In Alpha technology, singlet oxygen from a donor bead excites a nearby acceptor bead.
`Cc1n[nH]c(C(=O)Nc2cnc3[nH]c(-c4cccc5c4OC(F)(F)O5)cc3c2)c1C` [P-2281, N-[2-(2,2-difluoro-1,3-benzodioxol-4-yl)-1H-pyrrolo[2,3-b]pyridin-5-yl]-3,4-dimethyl-1H-pyrazole-5-carboxamide] displayed an IC50 of 10 to 200 µM.

In turn, `Cc1n[nH]c(C(=O)Nc2cnc3[nH]c(-c4ccnc(N5CCN(C(=O)C6CC6)CC5)c4)cc3c2)c1C` [P-2187, N-[2-[2-[4-(cyclopropanecarbonyl)piperazin-1-yl]-4-pyridyl]-1H-pyrrolo[2,3-b]pyridin-5-yl]-3,4-dimethyl-1H-pyrazole-5-carboxamide] gave an IC50 of 1 to 10 µM.

`Cc1cc(-c2cc3cc(NC(=O)c4[nH]nc(C)c4C)cnc3[nH]2)ccc1C(=O)O` [P-2296, 4-[5-[(3,4-dimethyl-1H-pyrazole-5-carbonyl)amino]-1H-pyrrolo[2,3-b]pyridin-2-yl]-2-methyl-benzoic acid] registered an IC50 of 0.0001 to 1 µM.

As to `Cc1n[nH]c(C(=O)Nc2cnc3[nH]c(-c4ccc(F)cc4)cc3c2)c1Cl` [P-2023, 4-chloro-N-[2-(4-fluorophenyl)-1H-pyrrolo[2,3-b]pyridin-5-yl]-3-methyl-1H-pyrazole-5-carboxamide], the IC50 was 1 to 10 µM.

`Cc1n[nH]c(C(=O)Nc2cnc(Nc3cccc(NS(=O)(=O)c4ccccc4)c3)nc2)c1C` [P-2053, N-[2-[3-(benzenesulfonamido)anilino]pyrimidin-5-yl]-3,4-dimethyl-1H-pyrazole-5-carboxamide] had a half-inhibitory concentration (IC50) of 1 to 10 µM.

As to `Cc1n[nH]c(C(=O)Nc2cnc3[nH]c(-c4ccc(C(=O)O)c(F)c4)cc3c2)c1C` [P-2292, 4-[5-[(3,4-dimethyl-1H-pyrazole-5-carbonyl)amino]-1H-pyrrolo[2,3-b]pyridin-2-yl]-2-fluoro-benzoic acid], the IC50 lay in the range of 0.0001 to 1 µM.

`O=C(Nc1cnc2[nH]c(-c3ccccc3)cc2c1)c1ncccc1F` [P-2012, 3-fluoro-N-(2-phenyl-1H-pyrrolo[2,3-b]pyridin-5-yl)pyridine-2-carboxamide] registered an IC50 of 0.0001 to 1 µM.

With `Cc1c[nH]nc1C(=O)Nc1cnc2[nH]c(-c3ccc(F)cc3)cc2c1` [P-2029, N-[2-(4-fluorophenyl)-1H-pyrrolo[2,3-b]pyridin-5-yl]-4-methyl-1H-pyrazole-3-carboxamide], the concentration for half-maximal inhibition (IC50) is 0.0001 to 1 µM.

For the compound `Cc1n[nH]c(C(=O)Nc2cnc3c(c2)cc(C2=CCN(C(=O)N4CCOCC4)CC2)n3S(=O)(=O)c2ccccc2)c1C` [P-2033, N-[1-(benzenesulfonyl)-2-[1-(morpholine-4-carbonyl)-3,6-dihydro-2H-pyridin-4-yl]pyrrolo[2,3-b]pyridin-5-yl]-3,4-dimethyl-1H-pyrazole-5-carboxamide], the concentration for half-maximal inhibition (IC50) was in the range of 10 to 200 µM.

For the compound `Cc1[nH]nc(C(=O)Nc2cnc3[nH]c(C4=CCN(C(=O)C5CC5)CC4)cc3c2)c1Cl` [P-2039, 4-chloro-N-[2-[1-(cyclopropanecarbonyl)-3,6-dihydro-2H-pyridin-4-yl]-1H-pyrrolo[2,3-b]pyridin-5-yl]-5-methyl-1H-pyrazole-3-carboxamide], the IC50 lay in the range of 0.0001 to 1 µM.

The compound `Cc1nn(C)cc1-c1cc2cc(NC(=O)c3[nH]nc(C)c3C)cnc2[nH]1` [P-2038, N-[2-(1,3-dimethylpyrazol-4-yl)-1H-pyrrolo[2,3-b]pyridin-5-yl]-4,5-dimethyl-1H-pyrazole-3-carboxamide] had an IC50 of 0.0001 to 1 µM.

`Cc1cc(C(=O)Nc2cnc3[nH]c(N4CCOCC4)cc3c2)[nH]n1` [P-2058, 3-methyl-N-(2-morpholino-1H-pyrrolo[2,3-b]pyridin-5-yl)-1H-pyrazole-5-carboxamide]: the half-inhibitory concentration (IC50) lay within 10 to 200 µM.

As for `Cc1n[nH]c(C(=O)Nc2cnc3[nH]c(-c4ccc(CC(=O)O)cc4)cc3c2)c1C` [P-2295, 2-[4-[5-[(3,4-dimethyl-1H-pyrazole-5-carbonyl)amino]-1H-pyrrolo[2,3-b]pyridin-2-yl]phenyl]acetic acid], the concentration for half-maximal inhibition (IC50) was in the range of 0.0001 to 1 µM.

The compound `Cc1n[nH]c(C(=O)Nc2cnc3[nH]c(-c4ccnc(N5CCN(S(C)(=O)=O)CC5)c4)cc3c2)c1C` [P-2186, 3,4-dimethyl-N-[2-[2-(4-methylsulfonylpiperazin-1-yl)-4-pyridyl]-1H-pyrrolo[2,3-b]pyridin-5-yl]-1H-pyrazole-5-carboxamide] registered an IC50 of 1 to 10 µM.

The compound `Cc1[nH]nc(C(=O)Nc2cnc3[nH]c(C4=CCN(C(=O)C5CC5)CC4)cc3c2)c1C` [P-2043, N-[2-[1-(cyclopropanecarbonyl)-3,6-dihydro-2H-pyridin-4-yl]-1H-pyrrolo[2,3-b]pyridin-5-yl]-4,5-dimethyl-1H-pyrazole-3-carboxamide] gave a half-inhibitory concentration (IC50) of 0.0001 to 1 µM.

The compound `Cc1nn(C2COC2)cc1-c1cc2cc(NC(=O)c3[nH]nc(C)c3C)cnc2[nH]1` [P-2168, 3,4-dimethyl-N-[2-[3-methyl-1-(oxetan-3-yl)pyrazol-4-yl]-1H-pyrrolo[2,3-b]pyridin-5-yl]-1H-pyrazole-5-carboxamide] gave an IC50 of 0.0001 to 1 µM.

`Cc1nn(C2CN(C(=O)OC(C)(C)C)C2)cc1-c1cc2cc(NC(=O)c3[nH]nc(C)c3C)cnc2[nH]1` [P-2285, tert-butyl 3-[4-[5-[(3,4-dimethyl-1H-pyrazole-5-carbonyl)amino]-1H-pyrrolo[2,3-b]pyridin-2-yl]-3-methyl-pyrazol-1-yl]azetidine-1-carboxylate] gave a concentration for half-maximal inhibition (IC50) of 0.0001 to 1 µM.

`Cc1n[nH]c(C(=O)Nc2cnc3[nH]c(-c4cnn(C5CCNCC5)c4)cc3c2)c1C` [P-2048, 3,4-dimethyl-N-[2-[1-(4-piperidyl)pyrazol-4-yl]-1H-pyrrolo[2,3-b]pyridin-5-yl]-1H-pyrazole-5-carboxamide] gave an IC50 of 0.0001 to 1 µM.

In the case of `Cc1n[nH]c(C(=O)Nc2cnc3[nH]c(-c4ccc(F)cc4OC(F)F)cc3c2)c1C` [P-2268, N-[2-[2-(difluoromethoxy)-4-fluoro-phenyl]-1H-pyrrolo[2,3-b]pyridin-5-yl]-3,4-dimethyl-1H-pyrazole-5-carboxamide], the 50% inhibitory concentration (IC50) was 1 to 10 µM.

Regarding `Cc1cc(C(=O)Nc2cnc3[nH]c(C4=CCN(C(=O)N5CCOCC5)CC4)cc3c2)n[nH]1` [P-2031, 5-methyl-N-[2-[1-(morpholine-4-carbonyl)-3,6-dihydro-2H-pyridin-4-yl]-1H-pyrrolo[2,3-b]pyridin-5-yl]-1H-pyrazole-3-carboxamide], the IC50 was 0.0001 to 1 µM.

In turn, `Cc1n[nH]c(C(=O)Nc2cnc3[nH]c(-c4cccc(N5CCNCC5)c4)cc3c2)c1C` [P-2274, 3,4-dimethyl-N-[2-(3-piperazin-1-ylphenyl)-1H-pyrrolo[2,3-b]pyridin-5-yl]-1H-pyrazole-5-carboxamide] returned an IC50 of 0.0001 to 1 µM.

In turn, `Cc1n[nH]c(C(=O)Nc2cnc3[nH]c(C4=CCN(S(C)(=O)=O)CC4)cc3c2)c1Cl` [P-2057, 4-chloro-3-methyl-N-[2-(1-methylsulfonyl-3,6-dihydro-2H-pyridin-4-yl)-1H-pyrrolo[2,3-b]pyridin-5-yl]-1H-pyrazole-5-carboxamide] yielded an IC50 of 0.0001 to 1 µM.

`Cc1n[nH]nc1C(=O)Nc1cnc2[nH]c(-c3ccc(F)cc3)cc2c1` [P-2037, N-[2-(4-fluorophenyl)-1H-pyrrolo[2,3-b]pyridin-5-yl]-5-methyl-2H-triazole-4-carboxamide] came in with an IC50 of 1 to 10 µM.

For `O=C(O)c1cccc(C(=O)Nc2cnc3[nH]c(-c4ccccc4)cc3c2)c1` [P-2291, 3-[(2-phenyl-1H-pyrrolo[2,3-b]pyridin-5-yl)carbamoyl]benzoic acid], the half-maximal inhibitory concentration (IC50) fell in the range of 10 to 200 µM.

For the compound `Cc1n[nH]c(C(=O)Nc2cnc3[nH]c(Cl)cc3c2)c1C` [P-2049, N-(2-chloro-1H-pyrrolo[2,3-b]pyridin-5-yl)-3,4-dimethyl-1H-pyrazole-5-carboxamide], the IC50 lay in the range of 10 to 200 µM.

Usually IC50 stands for the concentration at which inhibition is half-maximal. Higher therefore signals a need for much substance.
